Results reported in US6846500B1, “Oral care chewing gums and method of use” (Cadbury Adams USA LLC, priority 1999, dated 2005).

Experiment: Calcium precipitation on mixing CPP-ACP and sodium bicarbonate; calcium retained on filter by Atomic Absorption
Format: physicochemical, human
Description: The in vivo test was done to first determine the release of CPP-ACP. A five person panel chewed a gum containing 1% CPP-ACP. […] CPP-ACP and sodium bicarbonate at these concentration were incubated in a 30 ml pooled human saliva with moderate shaking at 37° C. for 3 minutes to test precipitation upon consumption of the gum and at 1 hour to show how longer contact time would precipitate calcium carbonate. The resultant pH of the incubation solution was approximately 7. The solution was filtered, the retentate was rinsed with deionized H2O to remove any soluble calcium and the result was analyzed for calcium content by Atomic Absorption analysis. As a control an aqueous solution of 30 g of a 0.3% CPP-ACP solution was pass through the filter paper.

With O=C([O-])O.[Na+] [NaHCO3, sodium bicarbonate] as the compound, how does the Calcium retained (30 g of saliva stored at 37° C. for 3 minutes) read?
Its Calcium retained is 1.700 mg.

And the Calcium retained (30 g of saliva stored at 37° C. for 3 minutes, listed as sodium bicarbonate)?
Its Calcium retained is 1.7 mg.

What about the Calcium retained (30 g of saliva stored at 37° C. for 1 hour) of the same compound?
Its Calcium retained is 1.600 mg.
